Experimental data: patent publication US10028992B2, “Methods of treating muscular dystrophy” (BOARD OF REGENTS OF THE NEVADA SYSTEM OF HIGHER EDUCATION …, priority 2012, dated 2018)

System: α7 integrin promoter
Experiment: muscle cell-based assay: α7βgal+/− myoblasts/myotubes, LacZ reporter, β-galactosidase cleavage of FDG
Design: species or system mouse
Conditions: Myotubes; for Results in a α7+/− β-galactosidase assay, Myotubes, 0.5 uM: compound at 0.5 uM; for Results in a α7+/− β-galactosidase assay, Myotubes, 1 uM: compound at 1 uM; for Results in a α7+/− β-galactosidase assay, Myotubes, 5 uM: compound at 5 uM; for Results in a α7+/− β-galactosidase assay, Myotubes, 10 uM: compound at 10 uM; for Results in a α7+/− β-galactosidase assay, Myotubes, 20 uM: compound at 20 uM; for Results in a α7+/− β-galactosidase assay, Myotubes, 40 uM: compound at 40 uM
How it was run: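 Fluorescein generated from FDG by β-galactosidase reports α7 integrin promoter activity in differentiated myoblasts from α7+/− LacZ knock-in pups. Screening hits then went to dose-response, western blotting and a myostatin counterscreen.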

Row | Structure (SMILES) | Results in a α7+/− β-galactosidase assay, Myotubes, 0.5 uM | Results in a α7+/− β-galactosidase assay, Myotubes, 1 uM | Results in a α7+/− β-galactosidase assay, Myotubes, 5 uM | Results in a α7+/− β-galactosidase assay, Myotubes, 10 uM | Results in a α7+/− β-galactosidase assay, Myotubes, 20 uM | Results in a α7+/− β-galactosidase assay, Myotubes, 40 uM
1 | COc1cccc(CN2CCN(Cc3ccco3)CC2)c1.O=C(O)C(=O)O [drawing 322] | 0.1434 | 0.2622 | 0.003264 | −0.05758 | −0.1598 | −0.2345
2 | CC(C)Oc1ccc(C(=O)/C=C2\C(=O)Nc3ccccc32)cc1 [drawing 323] | 0.1381 | 0.1721 | −0.09555 | −0.3062 | −0.7604 | −0.9215
3 | COc1ccc(NC(=O)C2(N(C(=O)Cn3nnnc3N)c3ccc(OC)cc3)CCCCC2)cc1 [drawing 324] | 0.05381 | 0.1378 | 0.2107 | −0.07457 | −0.3633 | −0.2285
4 | COc1ccc(CCNC(=O)Cn2nnc(C(=O)Nc3ccc(Br)cc3)c2N)cc1OC [drawing 325] | 0.151 | −0.08157 | −0.07294 | −0.05869 | −0.4709 | −0.3389
5 | CC1(C)Cc2c(cnn2-c2cccc(F)c2)C(NC(=O)CCc2cnccn2)C1 (stereo not drawn) [drawing 326] | 0.2586 | 0.1834 | −0.03061 | 0.09511 | −0.2257 | −0.2443
6 | O=C1Nc2ccccc2/C1=C/c1cccnc1 [drawing 327] | −0.03985 | 0.1859 | 0.1467 | 0.08556 | −0.2464 | −0.3705
7 | CNC(=O)CSc1nnc(-c2ccc3c(c2)OCO3)n1C [drawing 328] | 0.08818 | −0.1177 | 0.04868 | 0.07527 | −0.1599 | −0.2763
8 | Cc1ccccc1NC(=O)NCCCN1CCN(C)CC1 [drawing 329] | 0.0927 | 0.04605 | −0.02688 | −0.00108 | 0.01494 | −0.02803
9 | CC1(C)Cc2c(c(N3CCOCC3)nc3sc(C(=O)Nc4ccccc4)c(N)c23)CO1 [drawing 330] | 0.2661 | 0.1201 | −0.3453 | −0.3697 | 0.0827 | −0.164
10 | COc1ccc(N2CCN(C(=O)c3cc(C)on3)CC2)cc1 [drawing 331] | 0.1218 | 0.07329 | 0 .416848 | 0.01619 | −0.09449 | −0.06707
11 | CCOn1c(=O)c(-c2ccccc2)[n+]([O-])c2ccccc21 [drawing 332] | 0.2995 | 0.2794 | 0.2514 | 0.005171 | −0.0871 | −0.1572
12 | O=S(=O)(N/C(=N/C1CCCCC1)c1ccccc1F)c1ccccc1 [drawing 334] | 0.1113 | 0.07899 | 0.00127 | 0.03577 | −0.0234 | −0.0349
13 | CCCCNc1nnc(Cc2ccc(Cl)cc2)c(O)n1 [drawing 335] | 0.2647 | 0.1668 | −0.1354 | −0.08652 | −0.07223 | −0.1
14 | CC(C)CN(C(=O)c1cccc(Cl)c1)c1c(N)n(Cc2ccccc2)c(=O)[nH]c1=O [drawing 336] | 0.198 | 0.2672 | −0.02107 | 0.07176 | −0.1352 | −0.2545
15 | Cc1nc(O)nc(O)c1S(=O)(=O)Nc1ccc(F)cc1Cl [drawing 337] | 0.2345 | 0.05045 | 0.06886 | 0.09509 | −0.05815 | −0.1517
